Laboratory results: ChEMBL document CHEMBL4610038, “The synthesis of trifluoromethylated N-nitroaryl-2-amino-1,3-dichloropropane derivatives and their evaluation as potential anti-cancer agents” (Bioorg Med Chem Lett, 2020)

Assays:
[1] = tested on: MCF7; experiment: Cytotoxicity against human MCF7 cells assessed as cell viability at 100 uM relative to control; format: functional; conditions: read-out: Activity
[2] = tested on: MDA-MB-231; experiment: Cytotoxicity against human MDA-MB-231 cells assessed as cell viability at 100 uM relative to control; format: functional; conditions: read-out: Activity
[3] = tested on: MDA-MB-468; experiment: Cytotoxicity against human MDA-MB-468 cells assessed as cell viability at 100 uM relative to control; format: functional; conditions: read-out: Activity
[4] = tested on: SK-BR-3; experiment: Cytotoxicity against human SKBR3 cells assessed as cell viability at 100 uM relative to control; format: functional; conditions: read-out: Activity
[5] = tested on: T47D; experiment: Cytotoxicity against human T47D cells assessed as cell viability at 100 uM relative to control; format: functional; conditions: read-out: Activity
[6] = tested on: Caco-2; experiment: Cytotoxicity against human Caco2 cells assessed as cell viability at 100 uM relative to control; format: functional; conditions: read-out: Activity
[7] = tested on: HCT-116; experiment: Cytotoxicity against human HCT116 cells assessed as cell viability at 100 uM relative to control; format: functional; conditions: read-out: Activity
[8] = tested on: HT-29; experiment: Cytotoxicity against human HT-29 cells assessed as cell viability at 100 uM relative to control; format: functional; conditions: read-out: Activity
[9] = tested on: SW48; experiment: Cytotoxicity against human SW48 cells assessed as cell viability at 100 uM relative to control; format: functional; conditions: read-out: Activity
[10] = tested on: A549; experiment: Cytotoxicity against human A549 cells assessed as cell viability at 100 uM relative to control; format: functional; conditions: read-out: Activity
[11] = tested on: NCI-H1299; experiment: Cytotoxicity against human H1299 cells assessed as cell viability at 100 uM relative to control; format: functional; conditions: read-out: Activity
[12] = tested on: CNE; experiment: Cytotoxicity against human CNE1 cells assessed as cell viability at 100 uM relative to control; format: functional; conditions: read-out: Activity
[13] = Cytotoxicity against human HK1 cells assessed as cell viability at 100 uM relative to control; format: functional; conditions: HK-1, read-out: Activity
[14] = tested on: SUNE1; experiment: Cytotoxicity against human SUNE1 cells assessed as cell viability at 100 uM relative to control; format: functional; conditions: read-out: Activity
[15] = tested on: SH-SY5Y; experiment: Cytotoxicity against human SH-SY5Y cells assessed as cell viability at 100 uM relative to control; format: functional; conditions: read-out: Activity
[16] = tested on: ASPC1; experiment: Cytotoxicity against human AsPC1 cells assessed as cell viability at 100 uM relative to control; format: functional; conditions: read-out: Activity
[17] = tested on: BXPC-3; experiment: Cytotoxicity against human BxPC3 cells assessed as cell viability at 100 uM relative to control; format: functional; conditions: read-out: Activity
[18] = tested on: SW1990; experiment: Cytotoxicity against human SW1990 cells assessed as cell viability at 100 uM relative to control; format: functional; conditions: read-out: Activity
[19] = Cytotoxicity against human MCF10A cells assessed as cell viability at 100 uM relative to control; format: cell-based, MCF-10A; conditions: read-out: Activity
[20] = Cytotoxicity against human MRC5 cells assessed as cell viability at 100 uM relative to control; format: cell-based; conditions: read-out: Activity
[21] = tested on: MCF7; experiment: Cytotoxicity against human MCF7 cells assessed as reduction in cell viability; format: functional, cell-based
[22] = tested on: MDA-MB-231; experiment: Cytotoxicity against human MDA-MB-231 cells assessed as reduction in cell viability; format: functional, cell-based
[23] = tested on: MDA-MB-468; experiment: Cytotoxicity against human MDA-MB-468 cells assessed as reduction in cell viability; format: functional, cell-based
[24] = tested on: SK-BR-3; experiment: Cytotoxicity against human SKBR3 cells assessed as reduction in cell viability; format: functional, cell-based
[25] = tested on: T47D; experiment: Cytotoxicity against human T47D cells assessed as reduction in cell viability; format: functional, cell-based
[26] = tested on: Caco-2; experiment: Cytotoxicity against human Caco2 cells assessed as reduction in cell viability; format: functional, cell-based
[27] = tested on: HCT-116; experiment: Cytotoxicity against human HCT116 cells assessed as reduction in cell viability; format: functional, cell-based
[28] = tested on: HT-29; experiment: Cytotoxicity against human HT-29 cells assessed as reduction in cell viability; format: functional, cell-based
[29] = tested on: SW48; experiment: Cytotoxicity against human SW48 cells assessed as reduction in cell viability; format: functional, cell-based
[30] = tested on: A549; experiment: Cytotoxicity against human A549 cells assessed as reduction in cell viability; format: functional, cell-based
[31] = tested on: NCI-H1299; experiment: Cytotoxicity against human H1299 cells assessed as reduction in cell viability; format: functional, cell-based
[32] = tested on: CNE; experiment: Cytotoxicity against human CNE1 cells assessed as reduction in cell viability; format: functional, cell-based
[33] = Cytotoxicity against human HK1 cells assessed as reduction in cell viability; format: functional, cell-based; conditions: HK-1
[34] = tested on: SUNE1; experiment: Cytotoxicity against human SUNE1 cells assessed as reduction in cell viability; format: functional, cell-based
[35] = tested on: SH-SY5Y; experiment: Cytotoxicity against human SH-SY5Y cells assessed as reduction in cell viability; format: functional, cell-based
[36] = tested on: ASPC1; experiment: Cytotoxicity against human AsPC1 cells assessed as reduction in cell viability; format: functional, cell-based
[37] = tested on: BXPC-3; experiment: Cytotoxicity against human BxPC3 cells assessed as reduction in cell viability; format: functional, cell-based
[38] = tested on: SW1990; experiment: Cytotoxicity against human SW1990 cells assessed as reduction in cell viability; format: functional, cell-based
[39] = tested on: MCF-10A; experiment: Cytotoxicity against human MCF10A cells assessed as reduction in cell viability; format: cell-based
[40] = tested on: MRC5; experiment: Cytotoxicity against human MRC5 cells assessed as reduction in cell viability; format: cell-based

Compound	viability at 100 µM [1]	viability at 100 µM [2]	viability at 100 µM [3]	viability at 100 µM [4]	viability at 100 µM [5]	viability at 100 µM [6]	viability at 100 µM [7]	viability at 100 µM [8]	viability at 100 µM [9]	viability at 100 µM [10]	viability at 100 µM [11]	viability at 100 µM [12]	viability at 100 µM [13]	viability at 100 µM [14]	viability at 100 µM [15]	viability at 100 µM [16]	viability at 100 µM [17]	viability at 100 µM [18]	viability at 100 µM [19]	viability at 100 µM [20]	further results
O=[N+]([O-])c1ccc(NC(CO)CO)cc1C(F)(F)F	49.7%	65.7%	98.7%	79.4%	71.2%	96.1%	86.8%	110%	78.9%	61.9%	72.3%	100%	92.8%	104%	70.8%	87.3%	108%	71.5%	102%	32.8%	IC50 [21]: 88.1 µM; IC50 [22]: > 100 µM; IC50 [23]: > 100 µM; IC50 [24]: > 100 µM; IC50 [25]: > 100 µM; IC50 [26]: > 100 µM; IC50 [27]: > 100 µM; IC50 [28]: > 100 µM; IC50 [29]: > 100 µM; IC50 [30]: > 100 µM; IC50 [31]: > 100 µM; IC50 [32]: > 100 µM; IC50 [33]: > 100 µM; IC50 [34]: > 100 µM; IC50 [35]: > 100 µM; IC50 [36]: > 100 µM; IC50 [37]: > 100 µM; IC50 [38]: > 100 µM; IC50 [39]: > 100 µM; IC50 [40]: 41 µM
O=[N+]([O-])c1ccc(NC(CCl)CCl)c(C(F)(F)F)c1	10.5%	31.8%	20.4%	55.6%	24.3%	9.5%	24.5%	45.3%	26.5%	37.1%	38.1%	12.4%	61.4%	38.6%	21.6%	40.2%	23.2%	28.6%	47.5%	22.2%	IC50 [21]: 12.1 µM; IC50 [22]: 42.4 µM; IC50 [23]: 52.1 µM; IC50 [24]: > 100 µM; IC50 [25]: 34.7 µM; IC50 [26]: 10.1 µM; IC50 [27]: 33.1 µM; IC50 [28]: 92.1 µM; IC50 [29]: 33.4 µM; IC50 [30]: 57.7 µM; IC50 [31]: 49.1 µM; IC50 [32]: 15.3 µM; IC50 [33]: > 100 µM; IC50 [34]: 55.1 µM; IC50 [35]: 33.7 µM; IC50 [36]: 85.1 µM; IC50 [37]: 52.1 µM; IC50 [38]: 33.3 µM; IC50 [39]: 81 µM; IC50 [40]: 31 µM
O=[N+]([O-])c1ccc(NC(CO)CO)c(C(F)(F)F)c1	45.7%	93.1%	93.2%	75.2%	59.1%	101%	84.9%	84.2%	61.8%	99.6%	93.1%	82.5%	90.4%	52.4%	74.7%	84.7%	109%	72.4%	88.8%	74.9%	IC50 [21]: 88.3 µM; IC50 [22]: > 100 µM; IC50 [23]: > 100 µM; IC50 [24]: > 100 µM; IC50 [25]: > 100 µM; IC50 [26]: > 100 µM; IC50 [27]: > 100 µM; IC50 [28]: > 100 µM; IC50 [29]: > 100 µM; IC50 [30]: > 100 µM; IC50 [31]: > 100 µM; IC50 [32]: > 100 µM; IC50 [33]: > 100 µM; IC50 [34]: > 100 µM; IC50 [35]: > 100 µM; IC50 [36]: > 100 µM; IC50 [37]: > 100 µM; IC50 [38]: > 100 µM; IC50 [39]: > 100 µM; IC50 [40]: > 100 µM
O=[N+]([O-])c1ccc(NC(CCl)CCl)cc1C(F)(F)F	20.5%	57.4%	58.6%	52.7%	33.2%	20.9%	45%	38.4%	29.1%	27.8%	43.7%	32.6%	59.7%	44.9%	30.6%	58.7%	56.5%	36.7%	59.7%	22.1%	IC50 [21]: 33.1 µM; IC50 [22]: > 100 µM; IC50 [23]: > 100 µM; IC50 [24]: > 100 µM; IC50 [25]: 64.1 µM; IC50 [26]: 37.1 µM; IC50 [27]: 83.8 µM; IC50 [28]: 63.1 µM; IC50 [29]: 43.4 µM; IC50 [30]: 70.4 µM; IC50 [31]: > 100 µM; IC50 [32]: 33.2 µM; IC50 [33]: > 100 µM; IC50 [34]: 93.1 µM; IC50 [35]: 56.4 µM; IC50 [36]: > 100 µM; IC50 [37]: > 100 µM; IC50 [38]: 55.8 µM; IC50 [39]: > 100 µM; IC50 [40]: 33.9 µM
